Reference: PubChem BioAssay (NCI)
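In this assay, cells in 96-well plates receive the compound at five concentrations for 48 hours. Endpoints are linearly interpolated between the surrounding concentrations. TGI: total growth inhibition.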 Where a SMILES comes first, the peptide text is derived from it. The star is where a group is joined. Boc = CC(C)(C)OC(=O)*

What was measured:
Experiment in all cases: growth of human tumour cells (NCI), 48 h
UO-31 renal = tested on: UO-31 renal
NCI-H23 lung = tested on: NCI-H23 lung
BT-549 breast = tested on: BT-549 breast
RPMI-8226 leukemia = tested on: RPMI-8226 leukemia
M14 melanoma = tested on: M14 melanoma

| SMILES | TGI (UO-31 renal) | TGI (NCI-H23 lung) | TGI (BT-549 breast) | TGI (RPMI-8226 leukemia) | TGI (M14 melanoma) |
| --- | --- | --- | --- | --- | --- |
| CCCC(=O)OC1C(CO)OC(n2cc(F)c(=O)[nH]c2=O)C1F (stereo not given) | > 100 µM | > 100 µM | > 100 µM | > 100 µM |  |
| COCN1C(=O)[C@@H]2CCCN2C(=O)c2cc(N)ccc21 | > 100 µM | > 100 µM | > 100 µM |  | > 100 µM |
| CC(=O)OCC1OC(n2c(-c3ccc(C)cc3)cc(-c3ccccc3)c(C#N)c2=S)C(OC(C)=O)C(OC(C)=O)C1OC(C)=O (stereo not given) | > 100 µM | > 100 µM | > 100 µM | > 100 µM | > 100 µM |
| Cc1cn(CC2=NCC(C)N2)c(=O)[nH]c1=O (stereo not given) | > 100 µM | > 100 µM | > 100 µM | > 100 µM | > 100 µM |
| O=C1c2ccccc2C(=O)N1CC(O)COc1cccc2ccccc12 (stereo not given) | > 100 µM |  |  | > 100 µM | > 100 µM |
| CCC(=O)Nc1ccc(N2C(=O)C(Cl)C2c2ccc(SC)cc2)cc1 (stereo not given) | > 100 µM | > 100 µM | > 100 µM | > 100 µM | > 100 µM |
| CC(=O)O[C@H]1[C@H](OC(=O)CC(C)(O)CC(=O)O)C[C@]2(C)C3=C(CCC2C1(C)C)[C@]1(C)CC[C@H]([C@H]2CC[C@H](C(C)(C)O)OC2O)[C@@]1(C)[C@@H](O)C3 (stereo not given in full) | 25.8 µM | 32.2 µM | 29 µM | 43.8 µM | 33.4 µM |
| Cc1ccc(S(=O)(=O)N2CCCSCC2)cc1 | > 100 µM | > 100 µM |  |  |  |
| CC(C(O)c1ccccc1)C(O)(C(F)(F)F)C(F)(F)F (stereo not given) | > 100 µM | > 100 µM |  | > 100 µM | > 100 µM |
| O=C1CSC(c2cccc([N+](=O)[O-])c2)N1c1ccc(-n2c(-c3ccccc3)nc3ccccc3c2=O)cc1 (stereo not given) | 65.6 µM | > 100 µM | > 100 µM | > 100 µM | > 100 µM |
| Cc1ccccc1S(=O)(=O)Nn1cnc2ccc(S(=O)(=O)Nc3ccc(Cl)cc3)cc2c1=O | > 100 µM | > 100 µM | > 100 µM | > 100 µM | > 100 µM |
| CO/N=C(\C)CCC#Cc1ccccc1C(=O)OC | > 10 µM | > 10 µM | > 10 µM | > 10 µM | > 10 µM |
| COC(=O)C(Cc1c[nH]c2ccccc12)NC(=O)C(Cc1c[nH]c2ccccc12)NC(=O)C(Cc1c[nH]c2ccccc12)NC(=O)C(Cc1c[nH]c2ccccc12)NC(=O)C(Cc1c[nH]c2ccccc12)NC(=O)C(Cc1c[nH]c2ccccc12)NC(=O)C(Cc1c[nH]c2ccccc12)NC(=O)C(Cc1c[nH]c2ccccc12)NC(=O)OC(C)(C)C (stereo not given) (Boc-WWWWWWWW-OMe; configuration not given here) | > 100 µM | > 100 µM | > 100 µM | > 100 µM | 25.1 µM |
| O=C1CC(c2ccccc2)n2cccc21 (stereo not given) | > 100 µM | > 100 µM |  | > 100 µM | > 100 µM |
| CN(C)c1nc(Cl)c2c(-c3ccccc3)c(-c3ccccc3)oc2n1 | > 100 µM | > 100 µM | 97.7 µM | 60.8 µM | > 100 µM |
| CC1=C(C)Cc2c(O)ccc(O)c2C1 | 30.6 µM | > 100 µM |  | 27.2 µM | 30 µM |

| SMILES | TGI (UO-31 renal) | TGI (NCI-H23 lung) | TGI (BT-549 breast) | TGI (RPMI-8226 leukemia) | TGI (M14 melanoma) |
| --- | --- | --- | --- | --- | --- |
| NC(=S)N/N=C\c1nccc2ccccc12 | 3.63 µM | > 100 µM | 13.9 µM | 4.72 µM | 2.42 µM |
| COc1cc(CNNC(N)=S)cc(OC)c1OC | > 100 µM | > 100 µM | > 100 µM | > 100 µM | > 100 µM |
| COC(=O)C(CCSC)NC(=O)Cc1ccc(C(=O)c2ccccc2)cc1 (stereo not given) | > 100 µM | > 100 µM | > 100 µM | > 100 µM | > 100 µM |
| Cc1ccc(S(=O)(=O)NNCNC(=O)c2ccccc2)cc1 | > 100 µM | > 100 µM | > 100 µM | > 100 µM | > 100 µM |
| CCOC(=O)c1c(N2CCOCC2)[nH]c(=O)c(C(c2ccco2)c2c(O)c(C(=O)OCC)c(N3CCOCC3)[nH]c2=O)c1O | > 100 µM | > 100 µM | > 100 µM | > 100 µM | > 100 µM |
| COc1ccc2c(c1)CCc1c-2n(CCN2CCCCC2)c2ccc(OC)cc12 | > 100 µM | > 100 µM | > 100 µM | > 100 µM | > 100 µM |
| Cc1ccnc(NC(NC(=O)c2ccccc2)(C(F)(F)F)C(F)(F)F)c1 | > 100 µM | > 100 µM | > 100 µM | > 100 µM | > 100 µM |
| Cn1c2ccccc2c(=O)c2cccc(C(=O)NC(CCC(N)=O)C(=O)O)c21 (stereo not given) |  | > 100 µM | > 100 µM | > 100 µM | > 100 µM |
| COc1cc(/C=C/C(=O)C2(C(=O)/C=C/c3cc(OC)c(OC)c(OC)c3)CCCCC2)cc(OC)c1OC | > 100 µM | > 100 µM | 91.9 µM | > 100 µM | 81.7 µM |
| CC(C)(C)OC(=O)N1C(c2cccnc2)=CC[C@H]2C3CC=C(c4cccnc4)[C@@]3(C)CC[C@@H]21 (stereo not given in full) | 17.3 µM | 12.8 µM | 16.3 µM | 5.05 µM | 17.7 µM |
| CCOC(=O)NC(Nc1ccc(C(=O)OCC)cc1)(C(F)(F)F)C(F)(F)F | > 100 µM | > 100 µM | > 100 µM | > 100 µM | > 100 µM |
| N#Cc1ccc(-n2c3ccccc3c3ccc4c(c32)C(=O)C=CC4=O)cc1 | 3.02 µM | 24.4 µM | 25.3 µM | > 100 µM | 7.57 µM |
| COc1cc(/C=c2\sc3n(c2=O)C(c2ccc(Cl)cc2)C2=C(CCCC2C)N=3)cc(OC)c1OC (stereo not given) | > 100 µM |  |  | > 100 µM | > 100 µM |
| COc1ccc(SCc2cc(OCc3ccccc3)c(OCc3ccccc3)c(OCc3ccccc3)c2)cc1 | 3.18 µM | 3.35 µM | 4.59 µM |  | 3.57 µM |
| Cc1cc(S(=O)(=O)Nc2nc3ccccc3c(=O)n2N)c(S)cc1Cl |  | > 100 µM | > 100 µM | > 100 µM | > 100 µM |
